Several values for one entry are separate records, joined by “and”; a condition that tells them apart may be missing. Equal values may be shown once.
Columns and labels:
[1] = test system: Brassica napus (all varieties of canola and oilseed rape, BRSNN); test: Greenhouse postemergence application, visual injury after 20-22 d, BRSNN
Method: (§1) Seeds of the desired test plant species were planted in Sun Gro MetroMix® 306 planting mixture, which typically has a pH of 6.0 to 6.8 and an organic matter content of about 30 percent, in plastic pots with a surface area of 103.2 square centimeters (cm^2). […] The plants were grown for 7-36 days (d) in a greenhouse with an approximate 14-hour (h) photoperiod which was maintained at about 23° C. during the day and 22° C. during the night. Nutrients and water were added on a regular basis and supplemental lighting was provided with overhead metal halide 1000-Watt lamps as necessary. The plants were employed for testing when they reached the second or third true leaf stage.
(§2) An aliquot of formulated benzyl 4-amino-3-chloro-6-(4-chloro-2-fluoro-3-methoxyphenyl)-5-fluoropyridine-2-carboxylate (florpyrauxifen-benzyl; 300 grams active ingredient per liter (g ai/L) suspension concentrate (SC)) was placed in a 25 mL glass vial and diluted in a volume of 1.25% (v/v) aqueous Agri-dex crop oil concentrated to obtain a stock solution. […] The concentrated stock solutions were diluted with an aqueous mixture of 1.25% v/v of aqueous Agri-dex crop oil concentrate to provide the appropriate application rates. Compound requirements are based upon a 12 milliliter (mL) application volume at a rate of 187 liters per hectare (L/ha). Stock solutions of the formulated materials were prepared following the same procedure. Spray solutions of the compound mixtures were prepared by adding the stock solutions to the appropriate amount of dilution solution to form a 12 mL spray solution. Formulated compounds were applied to the plant material with an overhead Mandel track sprayer equipped with 8002E nozzles calibrated to deliver 187 L/ha over an application area of 0.503 square meters (m^2) at a spray height of 18 inches (43 centimeters (cm)) above average plant canopy. Control plants were sprayed in the same manner with the solvent blank.
(§3) The treated plants and control plants were placed in a greenhouse as described above and watered by sub-irrigation to prevent wash-off of the test compounds. After 20-22 d, the condition of the test plants as compared with that of the control plants was determined visually and scored on a scale of 0 to 100 percent where 0 corresponds to no injury and 100 corresponds to complete kill. Colby's equation was used to determine the herbicidal effects expected from the mixtures.
(§4) Benzyl 4-amino-3-chloro-6-(4-chloro-2-fluoro-3-methoxyphenyl)-5-fluoropyridine-2-carboxylate (florpyrauxifen-benzyl, 300 g ai/L SC) was combined in two-, three-, and four-way mixtures with one or more of the following: clopyralid-olamine (as Lontrel™ 35A Herbicidal Concentrate), quinclorac (as Facet 75DF), isoxadifen-ethyl (100 g/L SC), cloquintocet-mexyl (120 g/L EC) or mefenpyr-diethyl (as mefenpyr-diethyl 15WP). The mixtures were applied to kale/Chinese kale (Brassica alboglabra, BRSAG), Juncea canola or brown mustard (Brassica juncea, BRSJU), rutabaga (Brassica napus var. napobrassica, BRSNA), all varieties of canola and oilseed rape (Brassica napus, BRSNN), Nexera™ canola (Brassica napus, BRSNN-NEX), winter oilseed rape (Brassica napus, BRSNW), Roundup Ready® canola (Brassica napus, RR-BRSNN), and turnip or Polish canola (Brassica rapa, BRSRR), and the phytotoxicity of the compositions was measured.
(§5) Colby's equation was used to determine the herbicidal effects expected from the mixtures evaluated in the described trials (Colby, S. R. Calculation of the synergistic and antagonistic response of herbicide combinations. Weeds 1967, 15, 20-22.).
(§6) The following equation was used to calculate the expected activity of mixtures containing two active ingredients, A and B: Expected=A+B−(A×B/100) • A=observed efficacy of active ingredient A at the same concentration as used in the mixture; • B=observed efficacy of active ingredient B at the same concentration as used in the mixture.

[2] = test system: Brassica napus (winter oilseed rape, BRSNW); test: Greenhouse postemergence application, visual injury after 20-22 d, BRSNW
Method: as §1, §2, §3, §4, §5, §6

[3] = test system: Brassica napus (Roundup Ready canola, RR-BRSNN); test: Greenhouse postemergence application, visual injury after 20-22 d, RR-BRSNN
Method: as §1, §2, §3, §4, §5, §6

[4] = test system: Brassica napus (Nexera canola, BRSNN-NEX); test: Greenhouse postemergence application, visual injury after 20-22 d, BRSNN-NEX
Method: as §1, §2, §3, §4, §5, §6

[5] = test system: Brassica rapa (turnip or Polish canola, BRSRR); test: Greenhouse postemergence application, visual injury after 20-22 d, BRSRR
Method: as §1, §2, §3, §4, §5, §6

[6] = florpyrauxifen-benzyl 2.5 g ai/ha alone
[7] = florpyrauxifen-benzyl 5 g ai/ha alone
[8] = florpyrauxifen-benzyl 10 g ai/ha alone
[9] = florpyrauxifen-benzyl alone 2.5 g ai/ha
[10] = florpyrauxifen-benzyl alone 5 g ai/ha
[11] = florpyrauxifen-benzyl alone 10 g ai/ha
[12] = postemergence application, greenhouse, application rate (g ai/ha) varies

Question: Which results are given for COc1c(Cl)ccc(-c2nc(C(=O)OCc3ccccc3)c(Cl)c(N)c2F)c1F [Florpyrauxifen-benzyl, benzyl 4-amino-3-chloro-6-(4-chloro-2-fluoro-3-methoxyphenyl)-5-fluoropyridine-2-carboxylate]?
Answer: % Visual Injury Obs ([1]; BRSNN, 2.5 g ai/ha): 7%; % Visual Injury Obs ([1]; BRSNN, 5 g ai/ha): 12%; % Visual Injury Obs ([1]; BRSNN, 10 g ai/ha): 18%; Obs % visual injury ([1]; BRSNN, florpyrauxifen-benzyl alone 2.5 g ai/ha): 7%; Obs % visual injury ([1]; BRSNN, florpyrauxifen-benzyl alone 5 g ai/ha): 12%; Obs % visual injury ([1]; BRSNN, florpyrauxifen-benzyl alone 10 g ai/ha): 18%; % Visual Injury BRSNN Obs [1, 6]: 7%; % Visual Injury Obs [1, 6]: 7%; % Visual Injury BRSNN Obs [1, 7]: 12%; % Visual Injury Obs [1, 7]: 12%; % Visual Injury BRSNN Obs [1, 8]: 18%; % Visual Injury Obs [1, 8]: 18%; Obs % visual injury BRSNN [1, 9]: 7%; Obs % visual injury BRSNN [1, 10]: 12%; Obs % visual injury BRSNN [1, 11]: 18%; % Visual Injury Obs ([2]; BRSNW, 2.5 g ai/ha): 8%; % Visual Injury Obs ([2]; BRSNW, 5 g ai/ha): 13%; % Visual Injury Obs ([2]; BRSNW, 10 g ai/ha): 18%; Obs % visual injury ([2]; BRSNW, florpyrauxifen-benzyl alone 2.5 g ai/ha): 8%; Obs % visual injury ([2]; BRSNW, florpyrauxifen-benzyl alone 5 g ai/ha): 13%; Obs % visual injury ([2]; BRSNW, florpyrauxifen-benzyl alone 10 g ai/ha): 18%; % Visual Injury BRSNW Obs [2, 6]: 8%; % Visual Injury Obs [2, 6]: 8%; % Visual Injury BRSNW Obs [2, 7]: 13%; % Visual Injury Obs [2, 7]: 13%; % Visual Injury BRSNW Obs [2, 8]: 18%; % Visual Injury Obs [2, 8]: 18%; Obs % visual injury BRSNW [2, 9]: 8%; Obs % visual injury BRSNW [2, 10]: 13%; Obs % visual injury BRSNW [2, 11]: 18%; % Visual Injury BRSNW Obs [2, 12]: 8% and 13% and 18%; % Visual Injury Obs ([3]; RR-BRSNN, 2.5 g ai/ha): 6%; % Visual Injury Obs ([3]; RR-BRSNN, 5 g ai/ha): 9%; % Visual Injury Obs ([3]; RR-BRSNN, 10 g ai/ha): 19%; Obs % visual injury ([3]; RR-BRSNN, florpyrauxifen-benzyl alone 2.5 g ai/ha): 6%; Obs % visual injury ([3]; RR-BRSNN, florpyrauxifen-benzyl alone 5 g ai/ha): 9%; Obs % visual injury ([3]; RR-BRSNN, florpyrauxifen-benzyl alone 10 g ai/ha): 19%; % Visual Injury Obs [3, 6]: 6%; % Visual Injury RR-BRSNN Obs [3, 6]: 6%; % Visual Injury Obs [3, 7]: 9%; % Visual Injury RR-BRSNN Obs [3, 7]: 9%; % Visual Injury Obs [3, 8]: 19%; % Visual Injury RR-BRSNN Obs [3, 8]: 19%; Obs % visual injury RR-BRSNN [3, 9]: 6%; Obs % visual injury RR-BRSNN [3, 10]: 9%; Obs % visual injury RR-BRSNN [3, 11]: 19%; % Visual Injury Obs ([4]; BRSNN-NEX, 2.5 g ai/ha): 7%; % Visual Injury Obs ([4]; BRSNN-NEX, 5 g ai/ha): 12%; % Visual Injury Obs ([4]; BRSNN-NEX, 10 g ai/ha): 19%; Obs % visual injury ([4]; BRSNN-NEX, florpyrauxifen-benzyl alone 2.5 g ai/ha): 7%; Obs % visual injury ([4]; BRSNN-NEX, florpyrauxifen-benzyl alone 5 g ai/ha): 12%; Obs % visual injury ([4]; BRSNN-NEX, florpyrauxifen-benzyl alone 10 g ai/ha): 19%; % Visual Injury BRSNN-NEX Obs [4, 6]: 7%; % Visual Injury Obs [4, 6]: 7%; % Visual Injury BRSNN-NEX Obs [4, 7]: 12%; % Visual Injury Obs [4, 7]: 12%; % Visual Injury BRSNN-NEX Obs [4, 8]: 19%; % Visual Injury Obs [4, 8]: 19%; Obs % visual injury BRSNN-NEX [4, 9]: 7%; Obs % visual injury BRSNN-NEX [4, 10]: 12%; Obs % visual injury BRSNN-NEX [4, 11]: 19%; % Visual Injury Obs ([5]; BRSRR, 2.5 g ai/ha): 6%; % Visual Injury Obs ([5]; BRSRR, 5 g ai/ha): 9%; % Visual Injury Obs ([5]; BRSRR, 10 g ai/ha): 14%; Obs % visual injury ([5]; BRSRR, florpyrauxifen-benzyl alone 2.5 g ai/ha): 6%; Obs % visual injury ([5]; BRSRR, florpyrauxifen-benzyl alone 5 g ai/ha): 9%; Obs % visual injury ([5]; BRSRR, florpyrauxifen-benzyl alone 10 g ai/ha): 14%; % Visual Injury BRSRR Obs [5, 6]: 6%; % Visual Injury Obs [5, 6]: 6%; % Visual Injury BRSRR Obs [5, 7]: 9%; % Visual Injury Obs [5, 7]: 9%; % Visual Injury BRSRR Obs [5, 8]: 14%; % Visual Injury Obs [5, 8]: 14%; Obs % visual injury BRSRR [5, 9]: 6%; Obs % visual injury BRSRR [5, 10]: 9%; Obs % visual injury BRSRR [5, 11]: 14%; % Visual Injury BRSRR Obs [5, 12]: 6% and 9% and 14%
